Source: patent publication US9296762B2, “Complexing agents and corresponding lanthanide complexes” (CISBIO BIOASSAYS, priority 2011, dated 2016)

Experiments:
[1] = UV spectra of the chromophores, maximum absorption wavelength; format: physicochemical; details: UV spectrum of chromophore 78, carboxylate function protected in ester form
Experimental: Several compounds according to the invention were prepared and their photophysical properties, in particular the wavelengths corresponding to their maximum absorption peaks (λmax), were determined. The structures of these compounds and the results obtained are described in table 2.
The chromophores (similar to compound 78, carboxylate function protected in ester form) were synthesized according to the protocol described in scheme 13, using one of the two approaches “A” or “B” as described in this scheme (including that for the chromophores comprising naphthyl, thiolanyl, imidazolyl and anthracenyl rings or heterocycles). For each chromophore, the UV spectra were recorded and the maximum absorption wavelengths (λmax) were determined and reported in table 2.

[2] = Photophysical properties of symmetrical europium TACN complexes 81; format: physicochemical; details: symmetrical europium TACN complex 81 made of three identical chromophores
Experimental: For certain chromophores, europium complexes according to the invention in which the three chromophores are identical (symmetrical complexes) were prepared using the protocol described in scheme 14, with a TACN macrocycle (the synthetic yields for the intermediate compounds 79, 80 and 81 of scheme 14 were reported in table 2). The photophysical properties of these europium complexes were determined and also reported in this table.

Row | Structure (SMILES) | Chromophore 78 λmax (nm) [1] [nm] | Complex 81 Quantic yield (%) [2] [%] | Complex 81 λmax (nm) [2] [nm]
1 | COC(=O)c1cc(C#Cc2cccc3ccccc23)cc(CO)n1 | 329 | – | –
2 | COC(=O)c1cc(C#Cc2ccc(NC(=O)c3ccccc3)cc2)cc(CO)n1 | 323 | – | –
3 | COC(=O)c1cc(C#Cc2ccc3cc(OC)ccc3c2)cc(CO)n1 | 335 | – | –
4 | COC(=O)c1cc(C#Cc2ccc(Oc3ccccc3)cc2)cc(CO)n1 | 315 | – | –
5 | COC(=O)c1cc(C#Cc2ccc(OCC(=O)OC(C)(C)C)cc2)cc(CO)n1 | 318 | – | –
6 | COC(=O)c1cc(C#Cc2ccc(NC(=O)c3cc(OC)c(OC)c(OC)c3)cc2)cc(CO)n1 | 324 | – | –
7 | COC(=O)c1cc(C#Cc2ccc(-c3ccccc3)cc2)cc(CO)n1 | 318 | – | –
8 | COC(=O)c1cc(C#Cc2ccc(NC(=O)OC(C)(C)C)cc2)cc(CO)n1 | 326 | – | –
9 | COC(=O)c1cc(C#Cc2c3ccccc3cc3ccccc23)cc(CO)n1 | 326 | – | –

Continued, values first:

Row | Chromophore 78 λmax (nm) [1] [nm] | Complex 81 Quantic yield (%) [2] [%] | Complex 81 λmax (nm) [2] [nm] | Structure (SMILES)
10 | 320 | 52 | 333 | COC(=O)c1cc(C#Cc2ccc(OC)cc2)cc(CO)n1
11 | 326 | 52 | 323 | COC(=O)c1cc(C#Cc2ccsc2)cc(CO)n1
12 | 319 | 11 | 336 | COC(=O)c1cc(C#Cc2cc(OC)c(C)c(OC)c2)cc(CO)n1
13 | 322 | – | – | COC(=O)c1cc(C#Cc2ccc(NC(C)=O)cc2C)cc(CO)n1
14 | 291 | – | – | COC(=O)c1cc(C#Cc2ccccc2)cc(CO)n1 [reference compound]
15 | 326 | 76 | 343 | COC(=O)c1cc(C#Cc2ccc(OC)cc2C)cc(CO)n1
16 | 324 | – | – | COC(=O)c1cc(C#Cc2ccc(O)cc2)cc(CO)n1
17 | 315 | 54 | 333 | COC(=O)c1cc(C#Cc2cncn2C)cc(CO)n1
18 | 332 | – | – | COC(=O)c1cc(C#Cc2ccc(SC)cc2)cc(CO)n1
19 | 319 | – | – | COC(=O)c1cc(C#Cc2ccc(OC)cc2OC)cc(CO)n1
20 | 323 | 46 | 336 | COC(=O)c1cc(C#Cc2ccccc2OC)cc(CO)n1
